Article PMC10406941 (Scientific Reports, 2023)
Read-outs that look alike come from different tables or passages of the source.

Key:
SARS-CoV-2 [1] = assay: Anti-SARS-CoV-2 activity, detection of viral genomes by RT-qPCR on infected cells; assay type: cell-based; details: for anti-SARS-CoV-2 activity in words: Vero E6 cells; for fold reduction in anti-SARS-CoV-2 activity: relative to PB28, Vero E6 cells
S2R [2] = molecular target: T1, S2R (Rattus norvegicus, UniProt Q5U3Y7); details: [3H]-DTG, rat liver, masking with (+)-Pentazocine, cited from earlier work
T1 construct: [^3H]-DTG on rat liver masking with ( +)-Pentazocine according to the generally accepted protocol; from tissue; host or cells: rat liver
T1 sequence (Q5U3Y7 1-176): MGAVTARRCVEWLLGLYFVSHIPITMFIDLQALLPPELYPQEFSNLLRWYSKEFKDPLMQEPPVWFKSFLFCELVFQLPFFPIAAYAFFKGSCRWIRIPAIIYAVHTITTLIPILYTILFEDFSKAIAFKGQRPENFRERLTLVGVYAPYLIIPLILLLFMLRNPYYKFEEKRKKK

S1R [3] = molecular target: T2, S1R (Cavia porcellus, UniProt Q60492); details: cited from earlier work
T2 construct: [^3H]-( +)-Pentazocine on guinea pig brain according to the generally accepted protocol; from tissue; host or cells: guinea pig brain

SARS-CoV-2 [4] = details: read-out: IC90 anti-SARS-CoV-2 activity in vitro; cited from earlier work
S1R [5] = molecular target: T2, S1R; assay: S1R radioligand binding assay, [3H]-(+)-Pentazocine on guinea pig brain; details: Table 1, compound 6 (no reference cited)
S2R [6] = molecular target: T1, S2R; assay: S2R radioligand binding assay, [3H]-DTG on rat liver masking with (+)-Pentazocine; details: Table 1, compound 6 (no reference cited)
[7] = Table 1, RT-qPCR of viral genomes, Vero E6 cells infected with SARS-CoV-2, one representative experiment of at least three, read-out: IC50 (μM) SARS-CoV-2
[8] = Table 1, mean of three experiments in duplicate
[9] = Table 1, [3H]-(+)-Pentazocine, guinea pig brain, mean of three experiments in duplicate, read-out: Ki nM S1R
[10] = Table 1, RT-qPCR of viral genomes, Vero E6 cells infected with SARS-CoV-2, one representative experiment of at least three
[11] = Table 3, [3H]-(+)-Pentazocine, guinea pig brain, read-out: Ki nM S1R
[12] = Table 3, RT-qPCR of viral genomes, Vero E6 cells infected with SARS-CoV-2, read-out: IC50 (μM) SARS-CoV-2
[13] = Table 4, [3H]-(+)-Pentazocine, guinea pig brain, read-out: Ki Nm S1R
[14] = Table 4, RT-qPCR of viral genomes, Vero E6 cells infected with SARS-CoV-2

T2 sequence (Q60492 whole entry): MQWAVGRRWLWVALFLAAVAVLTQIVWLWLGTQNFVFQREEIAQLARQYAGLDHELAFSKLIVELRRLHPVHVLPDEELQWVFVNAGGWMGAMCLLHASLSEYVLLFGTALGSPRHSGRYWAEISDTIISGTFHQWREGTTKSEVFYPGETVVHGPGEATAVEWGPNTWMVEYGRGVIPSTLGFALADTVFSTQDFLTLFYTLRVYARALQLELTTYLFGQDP

| SMILES | IC50 (SARS-CoV-2 [1]; [7]) | Ki (S2R [2]; [8]) | Ki (S1R [3]; [9]) | anti-SARS-CoV-2 activity in words (SARS-CoV-2 [1]) | other results |
| --- | --- | --- | --- | --- | --- |
| COc1cccc2c(CCCN3CCN(C4CCCCC4)CC3)cccc12 [Compound 13] | 0.306 µM | 9.24 nM | – | – | – |
| COc1ccc2c(CCCN3CCN(C4CCCCC4)CC3)cccc2c1 [Compound 14] | – | 9.02 nM | 3.16 nM | complete loss of activity | IC50 (μM) SARS-CoV-2 (SARS-CoV-2 [1]; [10]): NOT ACTIVE |
| COc1cccc2c1CCCC2CCCN1CCN(C2CCCCC2)CC1 (centres unmarked) [PB28, 1-Cyclohexyl-4-[3-(5-methoxy-1,2,3,4-tetrahydronaphthalen-1-yl)propyl]piperazine, reference compound] | – | – | – | – | IC90 (SARS-CoV-2 [4]): 280 nM; IC50 (SARS-CoV-2 [1]; Severe acute respiratory syndrome coronavirus 2, Vero C1008, read-out: IC50 (μM) SARS-CoV-2): 0.299 µM |
| CCC(CC)N1CCN(CCCC2CCCc3c(OC)cccc32)CC1 (racemic) [Compound 25] | – | – | – | no anti-SARS-CoV-2 activity | Ki (S1R [3]; [11]): 12 nM; IC50 (μM) SARS-CoV-2 (SARS-CoV-2 [1]; Table 3, RT-qPCR of viral genomes, Vero E6 cells infected with SARS-CoV-2): NOT ACTIVE; Ki (S2R [2]; Table 3): 12.7 nM |
| COc1cccc2c1CCCC2CCCCCN1CCN(C2CCCCC2)CC1 (racemic) [Compound 5] | 0.19 µM | 0.35 nM | 1.52 nM | – | – |
| COc1cccc2c1CCCC2CCCCCCN1CCN(C2CCCCC2)CC1 (racemic) [Compound 6] | 1.32 µM | – | – | – | Ki (S1R [5]): 3.07 nM; Ki (S2R [6]): 103 nM; fold reduction in anti-SARS-CoV-2 activity (SARS-CoV-2 [1]): threefold less potent |
| Oc1ccc2c(CCCN3CCN(C4CCCCC4)CC3)cccc2c1 [Compound 17] | – | 26.4 nM | 6.78 nM | complete loss of antiviral activity | IC50 (μM) SARS-CoV-2 (SARS-CoV-2 [1]; [10]): NOT ACTIVE |
| CCCN1CCN(CCCC2CCCc3c(OC)cccc32)CC1 (racemic) [Compound 24] | – | – | – | – | Ki (S1R [3]; [11]): 9.6 nM; IC50 (SARS-CoV-2 [1]; [12]): 2.26 µM; fold reduction in anti-SARS-CoV-2 activity (SARS-CoV-2 [1]): 8 fold; Ki (S2R [2]; Table 3): 42.5 nM |
| COc1ccc2c(CCCCN3CCC(C)CC3)cccc2c1 [PB212, reference compound] | – | – | – | did not demonstrate any antiviral effect | Ki (S1R [3]; [13]): 0.03 nM; IC50 (μM) SARS-CoV-2 (SARS-CoV-2 [1]; [14]): NOT ACTIVE; Ki (S2R [2]; Table 4): 17.9 nM |
| Oc1cccc2c1CCCC2CCCN1CCN(C2CCCCC2)CC1 (racemic) [Compound 15] | – | 2.66 nM | – | complete loss of antiviral activity | IC50 (μM) SARS-CoV-2 (SARS-CoV-2 [1]; [10]): NOT ACTIVE |
| COc1cccc2c1CCCC2CCCCN1CCN(C2CCCCC2)CC1 (racemic) [Compound 4] | 0.32 µM | 3.58 nM | – | – | – |
| COc1cccc2c1CCCC2N1CCN(C2CCCCC2)CC1 (racemic) [Compound 1] | – | 7.9 nM | 0.4 nM | loss of activity | IC50 (μM) SARS-CoV-2 (SARS-CoV-2 [1]; [10]): NOT ACTIVE |
| Oc1ccc2c(c1)CCCC2CCCN1CCN(C2CCCCC2)CC1 (racemic) [Compound 16] | – | 1.12 nM | 0.69 nM | complete loss of antiviral activity | IC50 (μM) SARS-CoV-2 (SARS-CoV-2 [1]; [10]): NOT ACTIVE |
| COc1cccc2c1CCCC2CN1CCN(C2CCCCC2)CC1 (racemic) [Compound 2] | 5.9 µM | 16.4 nM | 0.31 nM | – | fold reduction in anti-SARS-CoV-2 activity (SARS-CoV-2 [1]): 20 fold |
| COc1ccc2c(c1)CCCC2CCCN1CCN(C2CCCCC2)CC1 (racemic) [Compound 10] | 0.47 µM | 5.42 nM | 0.36 nM | – | Ki (S1R [3]; as quoted in the text of the docking section, read-out: Ki (S1R)): 0.38 nM |
| c1ccc2c(c1)CCCC2CCCCCN1CCN(C2CCCCC2)CC1 (racemic) [Compound 9] | 0.19 µM | 7.85 nM | 1.45 nM | – | – |
| c1ccc2c(CCCN3CCN(C4CCCCC4)CC3)cccc2c1 [Compound 11] | 0.94 µM | 0.69 nM | 2.16 nM | – | – |
| c1ccc2c(c1)CCCC2CCCCN1CCN(C2CCCCC2)CC1 (racemic) [Compound 8] | 0.317 µM | 14.6 nM | – | – | – |
| COc1cccc2c1CCC[C@@H]2CCCN1CCN(C2CCCCC2)CC1 [(-)-R-PB28] | 0.309 µM | 0.49 nM | – | – | – |
| COc1ccc2c(c1)CCCC2CCCCN1CCC(C)CC1 (centres unmarked) [PB190, reference compound] | – | – | – | did not demonstrate any antiviral effect | Ki (S1R [3]; [13]): 0.42 nM; IC50 (μM) SARS-CoV-2 (SARS-CoV-2 [1]; [14]): NOT ACTIVE; Ki (S2R [2]; Table 4): 36.3 nM |
| Oc1ccc2cccc(CCCN3CCN(C4CCCCC4)CC3)c2c1 [Compound 18] | – | 11.8 nM | 5.48 nM | complete loss of antiviral activity | IC50 (μM) SARS-CoV-2 (SARS-CoV-2 [1]; [10]): NOT ACTIVE |
| COc1cccc2c1CCCC2CCN1CCN(C2CCCCC2)CC1 (racemic) [Compound 3] | 12.6 µM | 21.1 nM | 1.57 nM | – | fold reduction in anti-SARS-CoV-2 activity (SARS-CoV-2 [1]): 40 fold |
| COc1cccc2c1CCCC2CCCN1CCN(C)CC1 (racemic) [Compound 23] | – | – | – | – | Ki (S1R [3]; [11]): 17.8 nM; IC50 (SARS-CoV-2 [1]; [12]): 5.78 µM; fold reduction in anti-SARS-CoV-2 activity (SARS-CoV-2 [1]): 20 fold; Ki (S2R [2]; Table 3): 663 nM |
| COc1cccc2c1CCC[C@H]2CCCN1CCN(C2CCCCC2)CC1 [( +)-S-PB28] | 0.455 µM | 1.18 nM | – | – | – |
| c1ccc2c(c1)CCCC2CCCN1CCN(C2CCCCC2)CC1 (racemic) [Compound 7] | 0.438 µM | 0.68 nM | 0.61 nM | – | – |
| c1ccc2c(CCCCCN3CCN(C4CCCCC4)CC3)cccc2c1 [Compound 12] | 0.52 µM | 0.57 nM | 2.4 nM | – | – |
